Reference: article PMC7993375, “Discovery of novel quinoline-based analogues of combretastatin A-4 as tubulin polymerisation inhibitors with apoptosis inducing activity and potent anticancer effect” (Journal of Enzyme Inhibition and Medicinal Chemistry, 2021)
Each block holds one molecule with its values, some of them ahead of it.

Tests used:
[1] = tested on: HL-60; experiment: MTT cell viability assay, HL-60 leukaemia cells; type: cell-based; details: Homo sapiens, 72 h, read-out: IC50 value, HL-60
Method: (§1) The four human tumour cell lines MCF-7, HCT-116, HL-60 and HeLa used in this study were obtained from the VACSERA (Giza, Egypt) cell culture unit that were originally acquired from ATCC (Manassas, VA, USA). All the human tumour cell lines were cultured in Dulbecco’s Modified Eagle’s Medium (DMEM) with 10% foetal bovine serum, 2 mM L-glutamine and 100 µg/mL penicillin/streptomycin. Cells were maintained at 37 °C in 5% CO2 in a humidified incubator. All cells were sub-cultured 3 times/week by trypsinisation using TrypLE Express (1X).
(§2) The quinoline compounds were evaluated for antiproliferative effect using the MTT viability assay of four cancer cell lines (MCF-7, HCT-116, HL-60 and HeLa) and normal breast cells MCF-10A to calculate the relative IC50 values for each compound. Cells were seeded in triplicate in 96-well plates at a density of 10 × 10^3 cells/ml in a total volume of 200 µl per well. 0.1% of DMSO was used as a vehicle control. Following, the cells were treated with 2 µl test compound (from stock solutions in ethanol) to furnish the concentration range of study, 1 nM to 50 µM, and re-incubated for a further 72 h. The culture medium was then removed, and the cells washed with 100 µL phosphate buffered saline (PBS) and 50 µL MTT added, to reach a final concentration of 1 mg/mL. Cells were incubated for 2 h in darkness at 37 °C. Solubilisation was begun through the addition of […] DMSO, and the cells maintained at room temperature in darkness for 20 min to ensure thorough colour diffusion before reading the absorbance. Plates were incubated for 72 h at 37 °C + 5% CO2. The MTT (5 mg/mL in PBS) was added and incubated for another 4 h, and the optical density was detected with a microplate reader at 570 nm. Results were expressed as percentage viability relative to vehicle control (100%). Dose response curves were plotted and IC50 values (concentration of drug resulting in 50% reduction in cell survival) were obtained using the commercial software package Prism (GraphPad Software, Inc., La Jolla, CA, USA). All the experiments were repeated in at least three independent experiments.

[2] = tested on: MCF-7; experiment: MTT cell viability assay, MCF-7 breast adenocarcinoma cells; type: cell-based; details: Homo sapiens, MCF7, 72 h, read-out: IC50 value, MCF-7
Method: as §1, §2

[3] = tested on: HCT-116; experiment: MTT cell viability assay, HCT-116 colorectal carcinoma cells; type: cell-based; details: Homo sapiens, 72 h
Method: as §1, §2

[4] = tested on: HeLa; experiment: MTT cell viability assay, HeLa cervical adenocarcinoma cells; type: cell-based; details: Homo sapiens, 72 h
Method: as §1, §2

[5] = tested on: bovine brain tubulin; experiment: Tubulin polymerisation assay; type: biochemical; details: for IC50: Tubulin was at 10 µM, read-out: Tubulin assembly IC50 (inhibition of tubulin polymerisation)
Method: The assembly of purified bovine tubulin was monitored using a kit, BK006, purchased from Cytoskeleton Inc., (Denver, CO, USA). The assay was carried out in accordance with the manufacturer’s instructions using the standard assay conditions. Briefly, purified ([…]) in a buffer consisting of 80 mM PIPES (pH 6.9), 0.5 mM EGTA, 2 mM MgCl2, 1 mM GTP and 10% glycerol was incubated at 37 °C in the presence of either vehicle (2% (v/v) ddH2O), CA-4, or the quinoline compounds. Light is scattered proportionally to the concentration of polymerised microtubules in the assay. Therefore, tubulin assembly was monitored turbidimetrically at 340 nm in a Spectramax 340 PC spectrophotometer (Molecular Devices, Sunnyvale, CA, USA). The concentration that inhibits tubulin polymerisation by 50% (IC50) was determined using area under the curve (AUC). The AUC of the untreated controls were considered as 100% polymerisation. The IC50 value for each compound was computed using GraphPad Prism Software.

[6] = tested on: MCF-7, HL-60, HCT-116 and HeLa; experiment: MTT cell viability assay, statements over all four cancer cell lines; type: cell-based, human
Method: as §1, §2

IC50 [1]: 1560 ± 55 nM
IC50 [2]: 1030 ± 55 nM
IC50 [3]: 8210 ± 7.7 nM
IC50 [4]: 1410 ± 96 nM
IC50 ([6]; Homo sapiens): > 1000 nM
melting point: 230 to 232 °C
SMILES: COc1cc(C2=NC(=Cc3cc4ccccc4nc3OC)C(=O)N2)cc(OC)c1OC [Compound 13a, 5-[(2-Methoxyquinolin-3-yl)methylene]-2–(3,4,5-trimethoxyphenyl)-3,5-dihydro-4H-imidazol-4-one]

IC50 [1]: 240 ± 12 nM
IC50 [2]: 63 ± 1.1 nM
IC50 [3]: 173 ± 25 nM
IC50 [4]: 188 ± 13 nM
IC50 over all four cancer cell lines [6]: submicromolar
melting point: 223 to 225 °C
SMILES: COc1cc(C2=NC(=Cc3cc4cc(C)ccc4nc3OC)C(=O)N2)cc(OC)c1OC [Compound 13b, 5-[(2-Methoxy-6-methylquinolin-3-yl)methylene]-2–(3,4,5-trimethoxyphenyl)-3,5-dihydro-4H-imidazol-4-one]

IC50 [1]: 661 ± 26 nM
IC50 [2]: 223 ± 56 nM
IC50 [3]: 284 ± 83 nM
IC50 [4]: 733 ± 91 nM
IC50 [5]: 20300 nM
IC50 over all four cancer cell lines [6]: submicromolar
melting point: 236 to 238 °C
SMILES: COc1cc(C2=NC(=Cc3cc4ccc(C)cc4nc3OC)C(=O)N2)cc(OC)c1OC [Compound 13c, 5-[(2-Methoxy-7-methylquinolin-3-yl)methylene]-2–(3,4,5-trimethoxyphenyl)-3,5-dihydro-4H-imidazol-4-one]
fold less active than 12c (tubulin polymerisation) [5]: 16 fold

IC50 [1]: 96 ± 6 nM
IC50 [2]: 137 ± 23 nM
IC50 [3]: 109 ± 11 nM
IC50 [4]: 126 ± 44 nM
IC50 over all four cancer cell lines [6]: submicromolar
melting point: 233 to 235 °C
SMILES: COc1cc(C2=NC(=Cc3cc4cccc(C)c4nc3OC)C(=O)N2)cc(OC)c1OC [Compound 13d, 5-[(2-Methoxy-8-methylquinolin-3-yl)methylene]-2–(3,4,5-trimethoxyphenyl)-3,5-dihydro-4H-imidazol-4-one]

IC50 [1]: 272 ± 50 nM
IC50 [2]: 42 ± 2.5 nM
IC50 [3]: 85 ± 3 nM
IC50 [4]: 62 ± 3 nM
IC50 [5]: 1480 nM
melting point: 253 to 255 °C
SMILES: COc1ccc2nc(OC)c(C=C3N=C(c4cc(OC)c(OC)c(OC)c4)NC3=O)cc2c1 [Compound 13e, 5-[(2,6-Dimethoxyquinolin-3-yl)methylene]-2–(3,4,5-trimethoxyphenyl)-3,5-dihydro-4H-imidazol-4-one]

IC50 [1]: 210 ± 98 nM
IC50 [2]: 92 ± 6.2 nM
IC50 [3]: 187 ± 9 nM
IC50 [4]: 101 ± 90 nM
melting point: 241 to 243 °C
SMILES: COc1ccc2cc(C=C3N=C(c4cc(OC)c(OC)c(OC)c4)NC3=O)c(OC)nc2c1 [Compound 13f, 5-[(2,7-Dimethoxyquinolin-3-yl)methylene]-2–(3,4,5-trimethoxyphenyl)-3,5-dihydro-4H-imidazol-4-one]

IC50 [1]: 5110 ± 410 nM
IC50 [2]: 5560 ± 133 nM
IC50 [3]: 1620 ± 950 nM
IC50 [4]: 4440 ± 600 nM
melting point: 238 to 240 °C
SMILES: COc1cc(C2=NC(=Cc3cc4ccc(OC(C)C)cc4nc3OC)C(=O)N2)cc(OC)c1OC [Compound 13g, 5-((7-Isopropoxy-2-methoxyquinolin-3-yl)methylene)-2–(3,4,5-trimethoxyphenyl)-3,5-dihydro-4H-imidazol-4-one]

IC50 [1]: 4930 ± 260 nM
IC50 [2]: 1700 ± 821 nM
IC50 [3]: 2610 ± 430 nM
IC50 [4]: 2070 ± 390 nM
melting point: 259 to 261 °C
SMILES: COc1cc(C2=NC(=Cc3cc4ccc(OCc5ccccc5)cc4nc3OC)C(=O)N2)cc(OC)c1OC [Compound 13h, 5-[(7-(Benzyloxy)-2-methoxyquinolin-3-yl)methylene]-2–(3,4,5-trimethoxyphenyl)-3,5-dihydro-4H-imidazol-4-one]

Second part, the molecule before the results:

SMILES: COc1cc(C2=NC(=Cc3cc4ccccc4nc3OC)C(=O)O2)cc(OC)c1OC [Compound 12a, 4-[(2-Methoxyquinolin-3-yl)methylene]-2–(3,4,5-trimethoxyphenyl)oxazol-5(4H)-one]
IC50 [1]: 3309 ± 22 nM
IC50 [2]: 1710 ± 40 nM
IC50 [3]: 2010 ± 80 nM
IC50 [4]: 2110 ± 34 nM
fold less active than CA-4 (tubulin assembly) [5]: 6 fold
IC50 [5]: 14000 nM
melting point: 215 to 217 °C

SMILES: COc1cc(C2=NC(=Cc3cc4cc(C)ccc4nc3OC)C(=O)O2)cc(OC)c1OC [Compound 12b, 4-[(2-Methoxy-6-methylquinolin-3-yl)methylene]-2–(3,4,5-trimethoxyphenyl) oxazol-5(4H)-one]
IC50 [1]: 197 ± 41 nM
IC50 [2]: 132 ± 13 nM
IC50 [3]: 184 ± 7 nM
IC50 [4]: 117 ± 85 nM
melting point: 218 to 220 °C

SMILES: COc1cc(C2=NC(=Cc3cc4cccc(C)c4nc3OC)C(=O)O2)cc(OC)c1OC [Compound 12d, 4-[(2-Methoxy-8-methylquinolin-3-yl)methylene]-2–(3,4,5-trimethoxyphenyl) oxazol-5(4H)-one]
IC50 [1]: 268 ± 93 nM
IC50 [2]: 154 ± 71 nM
IC50 [3]: 191 ± 1 nM
IC50 [4]: 153 ± 83 nM
melting point: 236 to 238 °C

SMILES: COc1ccc2nc(OC)c(/C=C3\N=C(c4cc(OC)c(OC)c(OC)c4)OC3=O)cc2c1 [Compound 12e]
IC50 [1]: 68 ± 34 nM
IC50 [2]: 56 ± 27 nM
IC50 [3]: 31 ± 1 nM
IC50 [4]: 10 ± 4 nM
IC50 [5]: 2260 nM
melting point: 242 to 244 °C

SMILES: COc1ccc2cc(C=C3N=C(c4cc(OC)c(OC)c(OC)c4)OC3=O)c(OC)nc2c1 [Compound 12f, 4-[(2,7-Dimethoxyquinolin-3-yl)methylene]-2–(3,4,5-trimethoxyphenyl)oxazol-5(4H)-one]
IC50 [1]: 352 ± 21 nM
IC50 [2]: 52 ± 2.1 nM
IC50 [3]: 66 ± 5 nM
IC50 [4]: 138 ± 26 nM
melting point: 221 to 223 °C

SMILES: COc1cc(C2=NC(=Cc3cc4ccc(OC(C)C)cc4nc3OC)C(=O)O2)cc(OC)c1OC [Compound 12g, 4-[(7-Isopropoxy-2-methoxyquinolin-3-yl)methylene]-2–(3,4,5-trimethoxyphenyl)oxazol-5(4H)-one]
IC50 [1]: 1820 ± 640 nM
IC50 [2]: 1510 ± 220 nM
IC50 [3]: 7880 ± 300 nM
IC50 [4]: 1750 ± 500 nM
fold less active than CA-4 (tubulin assembly) [5]: 4 fold
IC50 [5]: 8230 nM
melting point: 227 to 229 °C

SMILES: COc1cc(C2=NC(=Cc3cc4ccc(OCc5ccccc5)cc4nc3OC)C(=O)O2)cc(OC)c1OC [Compound 12h, 4-[(7-(Benzyloxy)-2-methoxyquinolin-3-yl)methylene]-2–(3,4,5-trimethoxyphenyl)oxazol-5(4H)-one]
IC50 [1]: 4660 ± 260 nM
IC50 [2]: 1930 ± 612 nM
IC50 [3]: 1560 ± 720 nM
IC50 [4]: 1050 ± 840 nM
melting point: 247 to 249 °C
